Assay results as given in patent US8541405B2, “Methods for the preparation of Ivabradine sulfate and form I crystal thereof” (Jiangsu Hengrui Medicine Co., Ltd., priority 2009, dated 2013).
Where a name gives a salt, the structure may show the parent alone.

Key:
[1] = Stability test of crystal samples placed open in the air (illumination, heating, humidity), HPLC analysis; assay type: physicochemical; details: for HPLC analysis result, 60° C.: heating 60° C.; for HPLC analysis result, 60° C. / HPLC analysis result, RH90% / HPLC analysis result, Light: open in air; for HPLC analysis result, RH90%: humidity RH 90%; for HPLC analysis result, Light: illumination 4500 Lux
Source text: The stability investigation of different Ivabradine hydrochloride crystal form: three different solvents crystallization of samples were obtained in turn according to the method of example 4 except that Ivabradine sulfate is substituted with Ivabradine hydrochloride and ethanol is substituted with acetonitrile, ethyl acetate, acetone.
Moreover, α-form crystal samples can be obtained using toluene, N-methyl pyrrole as crystallization solvents according to the method disclosed in CN1583341A.
The four samples obtained above and the form I crystal of Ivabradine sulfate prepared in example 1 were placed opening in the air to test the stability in various conditions including illumination (4500 Lux), heating (60° C.), humidity (RH 90%).

[2] = pH of the Ivabradine sulfate aqueous solution; assay type: physicochemical; details: C=1%
Experimental: (§1) 4.3 g of […] was dissolved in 100 ml of acetone, then 30 ml of acetone containing 1 g of sulfuric acid was added. The obtained mixture was stirred and white crystals were precipitated from the reaction solution. The resulting precipitate was collected by filtration, washed with acetone and then dried at 60° C. in vacuum for 3 hours to obtain 4.8 g of Ivabradine sulfate. Melting point was determined by capillary crystalline approach at 156˜158° C. Water content is 0.8%. The pH of the Ivabradine sulfate aqueous is about 1.8 (C=1%). Yield: 90.5%.
as §1, with “containing 0.4” for “containing 1”, “obtain 1.2” for “obtain 4.8”, “Yield: 55.5%. It is form I crystal of Ivabradine sulfate judged by X-ray and DSC patterns.” for “Yield: 90.5%.”

Row | HPLC analysis result, 60° C. ([1]; Time 0 day, hydrochloride) | HPLC analysis result, 60° C. ([1]; Time 5 days, hydrochloride) | HPLC analysis result, 60° C. ([1]; Time 10 days, hydrochloride) | HPLC analysis result, RH90% ([1]; Time 0 day, hydrochloride) | HPLC analysis result, RH90% ([1]; Time 5 days, hydrochloride) | HPLC analysis result, RH90% ([1]; Time 10 days, hydrochloride) | HPLC analysis result, Light ([1]; Time 0 day, hydrochloride) | HPLC analysis result, Light ([1]; Time 5 days, hydrochloride) | HPLC analysis result, Light ([1]; Time 10 days, hydrochloride) | Structure (SMILES) | also measured
1 | 99.55% | 99.31% | 99.12% | 99.55% | 99.10% | 98.42% | 99.55% | 98.88% | 98.07% | COc1cc2c(cc1OC)CC(=O)N(CCCN(C)C[C@H]1Cc3cc(OC)c(OC)cc31)CC2 [Ivabradine hydrochloride 20080911, Ivabradine hydrochloride] | 
2 | 99.57% | 99.36% | 99.05% | 99.57% | 99.20% | 98.91% | 99.57% | 99.29% | 98.87% | COc1cc2c(cc1OC)CC(=O)N(CCCN(C)C[C@H]1Cc3cc(OC)c(OC)cc31)CC2 [Ivabradine hydrochloride 20080912, Ivabradine hydrochloride] | 
3 |  |  |  |  |  |  |  |  |  | COc1cc2c(cc1OC)CC(=O)N(CCCN(C)C[C@H]1Cc3cc(OC)c(OC)cc31)CC2 [Ivabradine sulfate 20080922, Ivabradine sulfate] | HPLC analysis result, 60° C. ([1]; Time 0 day): 99.46%; HPLC analysis result, 60° C. ([1]; Time 5 days): 99.42%; HPLC analysis result, 60° C. ([1]; Time 10 days): 99.40%; HPLC analysis result, RH90% ([1]; Time 0 day): 99.46%; HPLC analysis result, RH90% ([1]; Time 5 days): 99.28%; HPLC analysis result, RH90% ([1]; Time 10 days): 99.19%; HPLC analysis result, Light ([1]; Time 0 day): 99.46%; HPLC analysis result, Light ([1]; Time 5 days): 99.42%; HPLC analysis result, Light ([1]; Time 10 days): 99.39%; stability compared with the α-form crystal of Ivabradine hydrochloride ([1]; under high moisture conditions): more stable; stability compared with the α-form crystal of Ivabradine hydrochloride ([1]; under the light and heat condition): similar; stability compared with the polymorphism or mixed crystal of Ivabradine hydrochloride from acetonitrile, ethyl acetate, acetone ([1]; under various conditions): improved significantly; pH of the Ivabradine sulfate aqueous [2]: about 1.8
4 | 99.54% | 99.50% | 99.46% | 99.54% | 99.23% | 99.00% | 99.54% | 99.47% | 99.42% | COc1cc2c(cc1OC)CC(=O)N(CCCN(C)C[C@H]1Cc3cc(OC)c(OC)cc31)CC2 [Ivabradine sulfate 20080618, Ivabradine hydrochloride] | 
5 | 99.56% | 98.74% | 99.04% | 99.56% | 99.03% | 98.61% | 99.56% | 97.45% | 94.91% | COc1cc2c(cc1OC)CC(=O)N(CCCN(C)C[C@H]1Cc3cc(OC)c(OC)cc31)CC2 [Ivabradine hydrochloride 20080908, Ivabradine hydrochloride] | 
